Test results: patent US6156700A, “3-(1,2-Benzisothiazol- and isoxazol-5-yl)-2,4(1H,3H)-pyrimidinedione or thione and 3-(1,2-benzisothiazol- and isoxazol-5-yl)-4(3H)-pyrimidinone or thione herbicidal agents” (American Cyanmid Company, priority 1998, dated 2000)

How the values were obtained:
SETVI [1] = assay: Postemergence herbicidal evaluation; assay type: in vivo
CHEAL [2] = assay: Postemergence herbicidal evaluation; assay type: in vivo
AMBEL [3] = assay: Postemergence herbicidal evaluation; assay type: in vivo
AMBEL [4] = assay: Preemergence herbicidal evaluation; assay type: in vivo; design: scale not given here
Description: (§1) The preemergence and postemergence herbicidal properties of certain compounds of the present invention are compared with certain compounds disclosed in U.S. Pat. Nos. 5,484,763 and 5,523,278. The evaluations are performed as described in Examples 185 and 186. Data in Tables V and VI are reported by the compound number given in Example 185 for the compounds of this invention or by comparative compound letter for the compounds disclosed in U.S. Pat. Nos. 5,484,763 and 5,523,278.

SETVI [5] = assay: Preemergence herbicidal evaluation; assay type: in vivo; design: scale not given here
Description: as §1

IPOSS [6] = assay: Preemergence herbicidal evaluation; assay type: in vivo; design: scale not given here
Description: as §1

GLXMAW [7] = assay: Preemergence herbicidal evaluation; assay type: in vivo; design: scale not given here
Description: as §1

CHEAL [8] = assay: Preemergence herbicidal evaluation; assay type: in vivo; design: scale not given here
Description: as §1

GALAP [9] = assay: Preemergence herbicidal evaluation; assay type: in vivo; design: scale not given here
Description: as §1

ABUTH [10] = assay: Preemergence herbicidal evaluation; assay type: in vivo; design: scale not given here
Description: as §1

ZEAMX [11] = assay: Preemergence herbicidal evaluation; assay type: in vivo; design: scale not given here
Description: as §1

ECHCG [12] = assay: Preemergence herbicidal evaluation; assay type: in vivo; design: scale not given here
Description: as §1

CASOB [13] = assay: Preemergence herbicidal evaluation; assay type: in vivo; design: scale not given here
Description: as §1

IPOSS [14] = assay: Postemergence herbicidal evaluation; assay type: in vivo
GLXMAW [15] = assay: Postemergence herbicidal evaluation; assay type: in vivo
GALAP [16] = assay: Postemergence herbicidal evaluation; assay type: in vivo
CASOB [17] = assay: Postemergence herbicidal evaluation; assay type: in vivo
ORYSAT [18] = assay: Preemergence herbicidal evaluation; assay type: in vivo, Oryza sativa; design: scale not given here
Description: as §1

ORYSAT [19] = assay: Postemergence herbicidal evaluation; assay type: in vivo, Oryza sativa
ABUTH [20] = assay: Postemergence herbicidal evaluation; assay type: in vivo
ECHCG [21] = assay: Postemergence herbicidal evaluation; assay type: in vivo
ZEAMX [22] = assay: Postemergence herbicidal evaluation; assay type: in vivo

O=C1C2=C(CCCC2)C(=O)N1c1ccc2sncc2c1 [C]
herbicidal effect rating (SETVI [1]; 0.0157-0.0160 kg/ha): 0.0 | herbicidal effect rating (SETVI [1]; 0.0313-0.0320 kg/ha): 0.0 | herbicidal effect rating (SETVI [1]; 0.0625-0.0640 kg/ha): 0.0 | herbicidal effect rating (SETVI [1]; 0.1250 kg/ha): 0.0 | herbicidal effect rating (SETVI [1]; 0.2500 kg/ha): 0.0 | herbicidal effect rating (SETVI [1]; 0.5000 kg/ha): 2.0 | herbicidal effect rating (CHEAL [2]; 0.0157-0.0160 kg/ha): 0.0 | herbicidal effect rating (CHEAL [2]; 0.0313-0.0320 kg/ha): 3.0 | herbicidal effect rating (CHEAL [2]; 0.0625-0.0640 kg/ha): 3.0 | herbicidal effect rating (CHEAL [2]; 0.1250 kg/ha): 3.0 | herbicidal effect rating (CHEAL [2]; 0.2500 kg/ha): 4.0 | herbicidal effect rating (CHEAL [2]; 0.5000 kg/ha): 5.0 | herbicidal effect rating (AMBEL [3]; 0.0157-0.0160 kg/ha): 6.0 | herbicidal effect rating (AMBEL [3]; 0.0313-0.0320 kg/ha): 6.0 | herbicidal effect rating (AMBEL [3]; 0.0625-0.0640 kg/ha): 7.0 | herbicidal effect rating (AMBEL [3]; 0.1250 kg/ha): 8.0 | herbicidal effect rating (AMBEL [3]; 0.2500 kg/ha): 7.0 | herbicidal effect rating (AMBEL [3]; 0.5000 kg/ha): 9.0 | herbicidal effect rating (AMBEL [4]; 0.0313-0.0320 kg/ha): 3.0 | herbicidal effect rating (AMBEL [4]; 0.0620-0.0630 kg/ha): 3.0 | herbicidal effect rating (AMBEL [4]; 0.1250 kg/ha): 2.0 | herbicidal effect rating (AMBEL [4]; 0.2500 kg/ha): 2.0 | herbicidal effect rating (AMBEL [4]; 0.5000 kg/ha): 6.0 | herbicidal effect rating (SETVI [5]; 0.0313-0.0320 kg/ha): 0.0 | herbicidal effect rating (SETVI [5]; 0.0620-0.0630 kg/ha): 0.0 | herbicidal effect rating (SETVI [5]; 0.1250 kg/ha): 2.0 | herbicidal effect rating (SETVI [5]; 0.2500 kg/ha): 4.0 | herbicidal effect rating (SETVI [5]; 0.5000 kg/ha): 5.0 | herbicidal effect rating (IPOSS [6]; 0.0313-0.0320 kg/ha): 0.0 | herbicidal effect rating (IPOSS [6]; 0.0620-0.0630 kg/ha): 0.0 | herbicidal effect rating (IPOSS [6]; 0.1250 kg/ha): 0.0 | herbicidal effect rating (IPOSS [6]; 0.2500 kg/ha): 0.0 | herbicidal effect rating (IPOSS [6]; 0.5000 kg/ha): 2.0 | herbicidal effect rating (GLXMAW [7]; 0.0313-0.0320 kg/ha): 0.0 | herbicidal effect rating (GLXMAW [7]; 0.0620-0.0630 kg/ha): 0.0 | herbicidal effect rating (GLXMAW [7]; 0.1250 kg/ha): 0.0 | herbicidal effect rating (GLXMAW [7]; 0.2500 kg/ha): 0.0 | herbicidal effect rating (GLXMAW [7]; 0.5000 kg/ha): 0.0 | herbicidal effect rating (CHEAL [8]; 0.0313-0.0320 kg/ha): 3.0 | herbicidal effect rating (CHEAL [8]; 0.0620-0.0630 kg/ha): 4.0 | herbicidal effect rating (CHEAL [8]; 0.1250 kg/ha): 5.0 | herbicidal effect rating (CHEAL [8]; 0.2500 kg/ha): 3.0 | herbicidal effect rating (CHEAL [8]; 0.5000 kg/ha): 7.0 | herbicidal effect rating (GALAP [9]; 0.0620-0.0630 kg/ha): 2.0 | herbicidal effect rating (GALAP [9]; 0.1250 kg/ha): 2.0 | herbicidal effect rating (GALAP [9]; 0.2500 kg/ha): 6.0 | herbicidal effect rating (GALAP [9]; 0.5000 kg/ha): 7.5 | herbicidal effect rating (ABUTH [10]; 0.0313-0.0320 kg/ha): 0.0 | herbicidal effect rating (ABUTH [10]; 0.0620-0.0630 kg/ha): 2.0 | herbicidal effect rating (ABUTH [10]; 0.1250 kg/ha): 4.0 | herbicidal effect rating (ABUTH [10]; 0.2500 kg/ha): 9.0 | herbicidal effect rating (ABUTH [10]; 0.5000 kg/ha): 9.0 | herbicidal effect rating (ZEAMX [11]; 0.0313-0.0320 kg/ha): 0.0 | herbicidal effect rating (ZEAMX [11]; 0.0620-0.0630 kg/ha): 0.0 | herbicidal effect rating (ZEAMX [11]; 0.1250 kg/ha): 0.0 | herbicidal effect rating (ZEAMX [11]; 0.2500 kg/ha): 0.0 | herbicidal effect rating (ZEAMX [11]; 0.5000 kg/ha): 0.0 | herbicidal effect rating (ECHCG [12]; 0.0313-0.0320 kg/ha): 0.0 | herbicidal effect rating (ECHCG [12]; 0.0620-0.0630 kg/ha): 0.0 | herbicidal effect rating (ECHCG [12]; 0.1250 kg/ha): 2.0 | herbicidal effect rating (ECHCG [12]; 0.2500 kg/ha): 4.0 | herbicidal effect rating (ECHCG [12]; 0.5000 kg/ha): 6.0 | herbicidal effect rating (CASOB [13]; 0.0313-0.0320 kg/ha): 1.0 | herbicidal effect rating (CASOB [13]; 0.0620-0.0630 kg/ha): 0.0 | herbicidal effect rating (CASOB [13]; 0.1250 kg/ha): 0.0 | herbicidal effect rating (CASOB [13]; 0.2500 kg/ha): 0.0 | herbicidal effect rating (CASOB [13]; 0.5000 kg/ha): 5.5 | herbicidal effect rating (IPOSS [14]; 0.0157-0.0160 kg/ha): 2.0 | herbicidal effect rating (IPOSS [14]; 0.0313-0.0320 kg/ha): 6.0 | herbicidal effect rating (IPOSS [14]; 0.0625-0.0640 kg/ha): 5.0 | herbicidal effect rating (IPOSS [14]; 0.1250 kg/ha): 7.0 | herbicidal effect rating (IPOSS [14]; 0.2500 kg/ha): 6.0 | herbicidal effect rating (IPOSS [14]; 0.5000 kg/ha): 7.0 | herbicidal effect rating (GLXMAW [15]; 0.0157-0.0160 kg/ha): 1.0 | herbicidal effect rating (GLXMAW [15]; 0.0313-0.0320 kg/ha): 1.5 | herbicidal effect rating (GLXMAW [15]; 0.0625-0.0640 kg/ha): 3.0 | herbicidal effect rating (GLXMAW [15]; 0.1250 kg/ha): 2.0 | herbicidal effect rating (GLXMAW [15]; 0.2500 kg/ha): 2.5 | herbicidal effect rating (GLXMAW [15]; 0.5000 kg/ha): 4.5 | herbicidal effect rating (GALAP [16]; 0.0157-0.0160 kg/ha): 2.0 | herbicidal effect rating (GALAP [16]; 0.0313-0.0320 kg/ha): 3.0 | herbicidal effect rating (GALAP [16]; 0.0625-0.0640 kg/ha): 5.0 | herbicidal effect rating (GALAP [16]; 0.1250 kg/ha): 6.0 | herbicidal effect rating (GALAP [16]; 0.2500 kg/ha): 6.0 | herbicidal effect rating (GALAP [16]; 0.5000 kg/ha): 9.0 | herbicidal effect rating (CASOB [17]; 0.0157-0.0160 kg/ha): 3.0 | herbicidal effect rating (CASOB [17]; 0.0313-0.0320 kg/ha): 8.0 | herbicidal effect rating (CASOB [17]; 0.0625-0.0640 kg/ha): 7.0 | herbicidal effect rating (CASOB [17]; 0.1250 kg/ha): 7.0 | herbicidal effect rating (CASOB [17]; 0.2500 kg/ha): 7.0 | herbicidal effect rating (CASOB [17]; 0.5000 kg/ha): 9.0 | herbicidal effect rating (ORYSAT [18]; 0.0313-0.0320 kg/ha): 1.0 | herbicidal effect rating (ORYSAT [18]; 0.0620-0.0630 kg/ha): 2.0 | herbicidal effect rating (ORYSAT [18]; 0.1250 kg/ha): 2.0 | herbicidal effect rating (ORYSAT [18]; 0.2500 kg/ha): 4.0 | herbicidal effect rating (ORYSAT [18]; 0.5000 kg/ha): 4.0 | herbicidal effect rating (ORYSAT [19]; 0.0157-0.0160 kg/ha): 2.0 | herbicidal effect rating (ORYSAT [19]; 0.0313-0.0320 kg/ha): 2.0 | herbicidal effect rating (ORYSAT [19]; 0.0625-0.0640 kg/ha): 2.5 | herbicidal effect rating (ORYSAT [19]; 0.1250 kg/ha): 2.5 | herbicidal effect rating (ORYSAT [19]; 0.2500 kg/ha): 3.0 | herbicidal effect rating (ORYSAT [19]; 0.5000 kg/ha): 4.5 | herbicidal effect rating (ABUTH [20]; 0.0157-0.0160 kg/ha): 8.0 | herbicidal effect rating (ABUTH [20]; 0.0313-0.0320 kg/ha): 9.0 | herbicidal effect rating (ABUTH [20]; 0.0625-0.0640 kg/ha): 9.0 | herbicidal effect rating (ABUTH [20]; 0.1250 kg/ha): 9.0 | herbicidal effect rating (ABUTH [20]; 0.2500 kg/ha): 9.0 | herbicidal effect rating (ABUTH [20]; 0.5000 kg/ha): 9.0 | herbicidal effect rating (ECHCG [21]; 0.0157-0.0160 kg/ha): 0.0 | herbicidal effect rating (ECHCG [21]; 0.0313-0.0320 kg/ha): 0.0 | herbicidal effect rating (ECHCG [21]; 0.0625-0.0640 kg/ha): 0.0 | herbicidal effect rating (ECHCG [21]; 0.1250 kg/ha): 0.0 | herbicidal effect rating (ECHCG [21]; 0.2500 kg/ha): 0.0 | herbicidal effect rating (ECHCG [21]; 0.5000 kg/ha): 0.0 | herbicidal effect rating (ZEAMX [22]; 0.0157-0.0160 kg/ha): 1.5 | herbicidal effect rating (ZEAMX [22]; 0.0313-0.0320 kg/ha): 2.0 | herbicidal effect rating (ZEAMX [22]; 0.0625-0.0640 kg/ha): 1.5 | herbicidal effect rating (ZEAMX [22]; 0.1250 kg/ha): 1.5 | herbicidal effect rating (ZEAMX [22]; 0.2500 kg/ha): 2.5 | herbicidal effect rating (ZEAMX [22]; 0.5000 kg/ha): 3.0
